Assay results from patent publication US7507727B2, “Substituted quinobenzoxazine analogs and methods of using thereof” (Cylene Pharmaceuticals, Inc., priority 2003, dated 2009).
Like-named read-outs stand apart in the source and are kept apart here.

Experiments:
[1] = test system: native quadruplex structures that regulate different oncogenes; experiment: Quadrome footprints; type: binding; conditions: FIG. 4
Excerpt: Quadrome Footprints. Compounds may be evaluated for their ability to bind to other native quadruplex structures of biological relevance, including quadruplex control elements that regulate a range of different oncogenes.

[2] = Pharmacokinetic/toxicokinetic evaluation in rats; type: in vivo; conditions: for Cmax / AUC(0-t) / half-life / AUC(0-inf): rat, plasma
Experimental: The study was conducted using three (3) test and one (1) control article groups. The high and low test article groups and the control group consisted of 28 animals each and were used to assess tolerance. The medium test article group consisted of 64 animals of which 28 animals were used to assess tolerance and 36 animals were used to determine the level of test article in the blood at various time points after the first and fifth doses in the PK/TK portion of the study. The control article was the solution (5% dextrose in water; D5W) used to dilute the test article prior to administration and was administered at the same volume as the high dose test article group. […] Test and control articles were administered by intravenous (IV) injection into a tail vein over one minute on five consecutive days.
Blood samples for test article blood level analysis were taken as follows. Approximately 0.3-0.5 mL of blood was taken from three male and three female rats under anesthesia at each sample time point of pre-dose and at the end of injection (Time 0) and at approximately 0.08, 0.25, 0.5, 1, 2, 4, 8, 12, and 24 hours from the end of the injection after the first and fifth doses. Animals used to assess tolerance were terminated one day (for the primary group) or 15 days (for the recovery group) after the last dose. At termination of the tolerance test animals, blood for hematology and clinical chemistry analysis was drawn prior to euthanasia and following euthanasia. A necropsy was performed to include collection of major organs for microscopic evaluation. The animals used for the pk/tk blood sampling only to determine the level of test article were euthanized after the final blood sample was collected without any further sampling or observations.
PK/TK: Blood samples for test article blood level analysis were taken. Utilizing 18 male and 18 female medium dose animals, approximately 0.3-0.5 mL of blood was taken from three male and three female rats under anesthesia at each sampling time point of pre-dose and at the end of injection (Time 0) and at approximately 0.08, 0.25, 0.5, 1, 2, 4, 8, 12, and 24 hours from the end of the injection after the first and fifth dose. Blood sampling was via retro-orbital bleeding or cardiac puncture bleeding for an animal's terminal sample. Plasma (lithium heparin anticoagulant) samples were prepared and analyzed. General procedures for chemical pathology, necropsy, and histopathology, and statistical methods, for example as described in Example 65, were followed.

[3] = test system: phosphorylated p53 [pS15]; experiment: Phosphorylated p53 ELISA in HCT-116 cells; type: cell-based; conditions: 24 hr, 1-5 uM
Experimental: The protocol for this assay is described as follows. On Day 1, cells were seeded at 2×10^6 cells/10 cm dish/10 mL medium. On day two, cells were treated as follows: control=0.05% DMSO (5 μl DMSO stock/10 ml medium); 1 μM CX3543 (1 μl Stock (10 mM)/10 ml medium); 2 μM CX3543 (2 μl Stock (10 mM)/10 ml medium); 3 μM CX3543 (3 μl Stock (10 mM)/10 ml medium); 4 μM CX3543 (4 μl Stock (10 mM)/10 ml medium) and 5 μM CX3543 (5 μl Stock (10 mM)/10 ml medium).
On Day 3, cells were harvested and attached and floating cells were collected. Cells were washed twice with PBS, counted and collected at 4×10^6 cells/sample. The cell pellet was frozen at −80° C. until further use. […]
Test Procedure. […] After washing, the plate is inverted and tapped dry on absorbance tissue. […]
Wash wells with 400 μl working wash buffer four times. […] After washing, the plate is inverted and tapped try on absorbance tissue. […] After washing, the plate is inverted and tapped try on absorbance tissue. […] Read the plate at A450 nm by setting chromogen blank (=100 μl TMB+100 μl Stop soln) as blank. Read absorbance within 2 hours of assay completion.

## CN1CCCC1CCNC(=O)c1cn2c3c(c(N4CCC(c5cnccn5)C4)c(F)cc3c1=O)Oc1cc3ccccc3cc1-2 (centres unmarked) [CX-3543]
[1]
  selectivity footprint by oncogene: selectively binds to those quadruplexes that are capable of adopting the chair/propeller conformation
[2]; female
  Dose 5 to Dose 1 ratio for AUC(0-24): 1.5
[2]; female, iv, 7.6 mg/kg, Dose 1
  Cmax: 598 ng/mL
[2]; female, iv, 7.6 mg/kg, Dose 5
  Cmax: 1050 ng/mL
[2]; female, iv, 7.6 mg/kg, female, Dose 1, read-out: AUC(0-24)
  AUC(0-t): 784 ng·h/mL
[2]; female, iv, 7.6 mg/kg, female, Dose 5, read-out: AUC(0-24)
  AUC(0-t): 1200 ng·h/mL
[2]; female, iv, 7.6 mg/kg, female, Dose 5, read-out: terminal half-life (converted)
  half-life: 288 min
[2]; female, iv, 7.6 mg/kg, female, IV, Dose 1 (medium dose group, 7.6 mg/kg), read-out: terminal half-life (converted)
  half-life: 396 min
[2]; female, iv, […], female, Dose 1, […] IV, read-out: T1/2 (converted)
  half-life: 396 min
[2]; female, iv, […], female, Dose 5, […] IV once daily, read-out: T1/2 (converted)
  half-life: 288 min
[2]; male
  Dose 5 to Dose 1 ratio for AUC(0-24): 1.3
[2]; male, Dose 5 to Dose 1 AUC(0-24), 7.1 mg/kg IV
  Accumulation Ratio: 1.3
[2]; male, iv, 7.1 mg/kg, Dose 1, 7.1 mg/kg IV
  Cmax: 514 ng/mL
[2]; male, iv, 7.1 mg/kg, Dose 5, 7.1 mg/kg IV once daily
  Cmax: 485 ng/mL
[2]; male, iv, 7.1 mg/kg, male, Dose 1, 7.1 mg/kg IV, read-out: AUC(0-24)
  AUC(0-t): 779 ng·h/mL
[2]; male, iv, 7.1 mg/kg, male, Dose 1, 7.1 mg/kg IV, read-out: T1/2 (converted)
  half-life: 408 min
[2]; male, iv, 7.1 mg/kg, male, Dose 5, 7.1 mg/kg IV once daily, read-out: AUC(0-24)
  AUC(0-t): 1010 ng·h/mL
[2]; male, iv, 7.1 mg/kg, male, Dose 5, 7.1 mg/kg IV once daily, read-out: T1/2 (converted)
  half-life: 528 min
[2]; male, iv, 7.6 mg/kg, Dose 1
  Cmax: 514 ng/mL
[2]; male, iv, 7.6 mg/kg, Dose 5
  Cmax: 485 ng/mL
[2]; male, iv, 7.6 mg/kg, male, Dose 1, read-out: AUC(0-24)
  AUC(0-t): 779 ng·h/mL
[2]; male, iv, 7.6 mg/kg, male, Dose 5, read-out: AUC(0-24)
  AUC(0-t): 1010 ng·h/mL
[2]; male, iv, 7.6 mg/kg, male, Dose 5, read-out: terminal half-life (converted)
  half-life: 528 min
[2]; male, iv, 7.6 mg/kg, male, IV, Dose 1 (medium dose group, 7.6 mg/kg), read-out: terminal half-life (converted)
  half-life: 408 min
[2]; female, Dose 1, 7.2 mg/kg IV
  AUC(0-inf): 861 ng·h/mL
[2]; iv, 7.6 mg/kg, female, Dose 1
  AUC(0-inf): 861 ng·h/mL
[2]; iv, 7.6 mg/kg, male, Dose 1
  AUC(0-inf): 833 ng·h/mL
[2]; male, Dose 1, 7.1 mg/kg IV
  AUC(0-inf): 833 ng·h/mL
[3]
  population of phosphorylated p53: enhanced
